From paper PMC6072243 (ACS Omega, 2018)

What was measured:
CYP450 2D6 = CYP450 2D6 (Homo sapiens, UniProt P10635); assay: CYP450 inhibition; format: in vitro ADME; conditions: % inhibition at 10 μM
p38α MAPK = p38α MAPK (Homo sapiens, UniProt Q16539); assay: p38α MAPK enzyme-linked immunosorbent assay; format: biochemical; conditions: for inhibition at 10 µM: read-out: Percent inhibition of p38α MAPK at indicated concentration
CYP450 1A9 = assay: CYP450 inhibition; format: in vitro ADME; conditions: % inhibition at 10 μM
CYP450 3A4 = CYP450 3A4 (Homo sapiens, UniProt P08684); assay: CYP450 inhibition; format: in vitro ADME; conditions: % inhibition at 10 μM
Sequence of CYP450 3A4 (P08684 whole entry): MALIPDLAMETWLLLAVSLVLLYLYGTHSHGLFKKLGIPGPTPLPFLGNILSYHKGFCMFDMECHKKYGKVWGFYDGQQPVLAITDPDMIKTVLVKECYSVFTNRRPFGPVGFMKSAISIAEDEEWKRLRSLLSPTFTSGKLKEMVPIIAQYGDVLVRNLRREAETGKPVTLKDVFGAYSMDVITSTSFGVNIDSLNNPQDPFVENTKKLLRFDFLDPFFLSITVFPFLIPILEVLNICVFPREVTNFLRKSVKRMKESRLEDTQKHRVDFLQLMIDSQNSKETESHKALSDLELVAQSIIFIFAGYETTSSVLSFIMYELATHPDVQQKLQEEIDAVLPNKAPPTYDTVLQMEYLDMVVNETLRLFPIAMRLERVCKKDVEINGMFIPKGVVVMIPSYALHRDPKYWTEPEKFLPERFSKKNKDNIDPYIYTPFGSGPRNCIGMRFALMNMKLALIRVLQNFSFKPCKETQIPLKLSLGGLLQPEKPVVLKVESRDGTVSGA

JNK3 = JNK3 (Homo sapiens, UniProt P53779); assay: JNK3 enzyme-linked immunosorbent assay; format: biochemical
Sequence of JNK3 (P53779 whole entry): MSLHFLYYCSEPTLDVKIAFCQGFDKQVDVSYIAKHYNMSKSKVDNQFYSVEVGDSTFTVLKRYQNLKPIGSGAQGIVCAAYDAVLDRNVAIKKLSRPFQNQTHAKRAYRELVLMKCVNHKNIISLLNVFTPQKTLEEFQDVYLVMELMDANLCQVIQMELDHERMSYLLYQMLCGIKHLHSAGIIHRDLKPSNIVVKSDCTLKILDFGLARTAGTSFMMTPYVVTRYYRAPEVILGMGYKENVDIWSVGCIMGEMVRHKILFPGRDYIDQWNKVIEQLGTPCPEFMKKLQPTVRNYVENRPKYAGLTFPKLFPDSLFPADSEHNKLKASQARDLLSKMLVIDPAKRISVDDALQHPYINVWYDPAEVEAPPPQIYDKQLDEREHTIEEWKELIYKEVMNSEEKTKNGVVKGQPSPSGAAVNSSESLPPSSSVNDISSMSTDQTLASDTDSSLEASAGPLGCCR

JNK2 = JNK2 (Homo sapiens, UniProt P45984); assay: Radiometric assay, Reaction Biology corporation; format: biochemical
Sequence of JNK2 (P45984 whole entry): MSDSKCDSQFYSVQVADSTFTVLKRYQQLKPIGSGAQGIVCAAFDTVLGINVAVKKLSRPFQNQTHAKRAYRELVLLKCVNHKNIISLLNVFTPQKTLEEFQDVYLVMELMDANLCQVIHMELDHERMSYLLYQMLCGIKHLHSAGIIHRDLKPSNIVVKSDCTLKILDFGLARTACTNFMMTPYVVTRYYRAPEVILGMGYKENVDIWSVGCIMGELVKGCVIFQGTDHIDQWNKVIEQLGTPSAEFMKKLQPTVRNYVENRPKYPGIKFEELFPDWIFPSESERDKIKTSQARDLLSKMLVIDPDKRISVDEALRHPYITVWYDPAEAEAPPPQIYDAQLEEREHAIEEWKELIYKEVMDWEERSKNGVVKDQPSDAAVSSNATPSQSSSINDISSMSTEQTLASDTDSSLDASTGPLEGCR

[1] = In vitro metabolic stability in human liver microsomes; format: in vitro ADME; conditions: after 4 h incubation
hERG channels = hERG channels (Homo sapiens, UniProt Q12809); assay: hERG inhibition
Sequence of hERG channels (Q12809 whole entry): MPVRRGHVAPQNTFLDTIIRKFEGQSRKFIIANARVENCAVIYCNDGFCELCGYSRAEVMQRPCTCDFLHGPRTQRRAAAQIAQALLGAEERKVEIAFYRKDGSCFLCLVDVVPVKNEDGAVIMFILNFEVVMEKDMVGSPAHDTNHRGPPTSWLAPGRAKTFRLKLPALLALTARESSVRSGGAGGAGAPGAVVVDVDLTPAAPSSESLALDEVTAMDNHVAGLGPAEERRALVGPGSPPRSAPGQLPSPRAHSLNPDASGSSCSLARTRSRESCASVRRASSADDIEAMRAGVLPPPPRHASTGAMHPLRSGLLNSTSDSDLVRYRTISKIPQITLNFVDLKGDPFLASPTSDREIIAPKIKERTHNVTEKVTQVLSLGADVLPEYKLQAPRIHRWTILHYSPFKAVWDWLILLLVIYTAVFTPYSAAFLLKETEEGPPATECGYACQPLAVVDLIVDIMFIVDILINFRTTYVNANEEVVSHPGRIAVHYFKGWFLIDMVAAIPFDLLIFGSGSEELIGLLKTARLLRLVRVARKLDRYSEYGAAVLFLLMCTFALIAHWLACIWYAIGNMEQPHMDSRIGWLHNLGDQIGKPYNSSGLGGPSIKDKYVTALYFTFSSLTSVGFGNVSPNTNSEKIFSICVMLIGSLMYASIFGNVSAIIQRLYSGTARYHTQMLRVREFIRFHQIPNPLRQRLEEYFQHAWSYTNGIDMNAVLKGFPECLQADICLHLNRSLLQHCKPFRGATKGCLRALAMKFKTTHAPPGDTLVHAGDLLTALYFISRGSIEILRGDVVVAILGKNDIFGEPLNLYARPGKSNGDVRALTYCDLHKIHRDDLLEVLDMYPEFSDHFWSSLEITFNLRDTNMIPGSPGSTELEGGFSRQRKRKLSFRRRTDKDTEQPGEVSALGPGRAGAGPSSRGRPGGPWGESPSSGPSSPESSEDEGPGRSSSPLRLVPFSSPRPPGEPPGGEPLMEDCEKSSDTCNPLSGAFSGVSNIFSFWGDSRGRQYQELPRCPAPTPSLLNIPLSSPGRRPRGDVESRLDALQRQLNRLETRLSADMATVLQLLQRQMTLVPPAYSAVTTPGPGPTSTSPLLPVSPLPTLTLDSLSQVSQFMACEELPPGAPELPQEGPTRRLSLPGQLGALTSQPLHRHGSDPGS

CYP450 2C19 = CYP450 2C19 (Homo sapiens, UniProt P33261); assay: CYP450 inhibition; format: in vitro ADME; conditions: % inhibition at 10 μM
Sequence of CYP450 2C19 (P33261 whole entry): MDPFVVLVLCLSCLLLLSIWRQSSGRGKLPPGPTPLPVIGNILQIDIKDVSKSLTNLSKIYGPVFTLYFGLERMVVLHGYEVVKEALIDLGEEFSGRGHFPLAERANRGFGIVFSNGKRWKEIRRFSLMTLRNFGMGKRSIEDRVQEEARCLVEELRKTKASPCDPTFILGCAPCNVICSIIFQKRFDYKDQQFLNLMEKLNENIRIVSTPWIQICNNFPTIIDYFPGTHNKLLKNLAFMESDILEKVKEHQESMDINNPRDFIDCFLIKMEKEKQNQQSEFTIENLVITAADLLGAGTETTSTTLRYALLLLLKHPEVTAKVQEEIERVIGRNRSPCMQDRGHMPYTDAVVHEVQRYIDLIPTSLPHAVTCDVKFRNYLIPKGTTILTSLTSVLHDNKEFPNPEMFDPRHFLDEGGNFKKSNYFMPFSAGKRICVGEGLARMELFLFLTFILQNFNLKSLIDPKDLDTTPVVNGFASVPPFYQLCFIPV

[2] = test system: panel of 45 diverse kinases; assay: ExpresS Diversity Kinase Panel, whole panel; format: biochemical, human; conditions: panel of 45 kinases, 10 μM, including JNK1
CYP450 2C9 = CYP450 2C9 (Homo sapiens, UniProt P11712); assay: CYP450 inhibition; format: in vitro ADME; conditions: % inhibition at 10 μM
Sequence of CYP450 2C9 (P11712 whole entry): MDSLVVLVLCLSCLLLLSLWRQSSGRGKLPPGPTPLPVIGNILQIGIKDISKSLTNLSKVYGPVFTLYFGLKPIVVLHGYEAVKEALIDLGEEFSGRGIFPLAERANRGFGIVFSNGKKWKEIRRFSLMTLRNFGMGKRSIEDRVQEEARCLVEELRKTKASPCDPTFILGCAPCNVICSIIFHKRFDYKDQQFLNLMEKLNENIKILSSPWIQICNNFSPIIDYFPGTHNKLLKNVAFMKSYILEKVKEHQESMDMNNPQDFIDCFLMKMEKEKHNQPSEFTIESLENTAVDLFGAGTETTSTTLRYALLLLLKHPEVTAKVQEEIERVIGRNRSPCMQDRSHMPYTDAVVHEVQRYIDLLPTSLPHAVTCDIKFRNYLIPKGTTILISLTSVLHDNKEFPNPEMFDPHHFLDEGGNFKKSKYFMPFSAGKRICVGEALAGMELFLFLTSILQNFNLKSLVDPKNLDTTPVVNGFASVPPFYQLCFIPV

JNK1 = JNK1 (Homo sapiens, UniProt P45983); assay: Radiometric assay, Reaction Biology corporation; format: biochemical
Sequence of JNK1 (P45983 whole entry): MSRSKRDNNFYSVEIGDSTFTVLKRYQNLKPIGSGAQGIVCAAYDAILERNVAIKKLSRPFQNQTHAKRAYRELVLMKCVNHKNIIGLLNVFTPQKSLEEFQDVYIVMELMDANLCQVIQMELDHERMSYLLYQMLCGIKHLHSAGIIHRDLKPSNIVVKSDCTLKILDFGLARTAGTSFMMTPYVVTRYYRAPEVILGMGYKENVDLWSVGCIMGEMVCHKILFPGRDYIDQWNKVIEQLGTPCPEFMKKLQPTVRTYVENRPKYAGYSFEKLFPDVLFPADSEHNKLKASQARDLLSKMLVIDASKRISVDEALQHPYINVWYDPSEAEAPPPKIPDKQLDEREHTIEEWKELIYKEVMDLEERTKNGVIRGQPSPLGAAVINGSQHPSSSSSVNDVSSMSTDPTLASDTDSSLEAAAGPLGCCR

[3] = 2-methylaminothiazole versus 2-sulfanylimidazole (compound 5)

Sequence of p38α MAPK (Q16539 whole entry): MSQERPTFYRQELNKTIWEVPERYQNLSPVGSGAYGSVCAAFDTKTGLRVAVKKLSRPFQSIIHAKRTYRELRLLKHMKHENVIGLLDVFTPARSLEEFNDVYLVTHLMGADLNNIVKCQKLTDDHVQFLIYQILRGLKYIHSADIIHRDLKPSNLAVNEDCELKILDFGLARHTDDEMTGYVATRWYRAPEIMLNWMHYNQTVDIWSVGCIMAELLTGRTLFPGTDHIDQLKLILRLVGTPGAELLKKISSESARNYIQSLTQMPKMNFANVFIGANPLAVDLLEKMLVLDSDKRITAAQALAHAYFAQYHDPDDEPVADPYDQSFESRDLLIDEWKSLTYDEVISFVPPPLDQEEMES
Sequence of CYP450 2D6 (P10635 whole entry): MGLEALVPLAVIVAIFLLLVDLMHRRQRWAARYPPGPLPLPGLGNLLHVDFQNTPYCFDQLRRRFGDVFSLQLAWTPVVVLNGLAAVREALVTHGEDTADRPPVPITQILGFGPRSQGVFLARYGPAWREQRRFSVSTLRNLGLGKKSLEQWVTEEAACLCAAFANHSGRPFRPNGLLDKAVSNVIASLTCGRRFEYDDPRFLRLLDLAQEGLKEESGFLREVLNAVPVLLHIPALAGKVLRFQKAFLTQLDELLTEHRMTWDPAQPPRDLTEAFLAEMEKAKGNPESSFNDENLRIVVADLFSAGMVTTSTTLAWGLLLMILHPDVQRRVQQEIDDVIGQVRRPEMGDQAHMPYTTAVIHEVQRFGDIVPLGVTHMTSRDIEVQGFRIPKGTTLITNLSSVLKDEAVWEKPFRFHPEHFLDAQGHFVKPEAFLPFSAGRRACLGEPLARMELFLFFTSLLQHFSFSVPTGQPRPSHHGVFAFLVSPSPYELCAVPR

Row | IC50 (p38α MAPK) | inhibition at 10 µM (p38α MAPK) | IC50 (JNK3) | SMILES | also measured
1 | > 10000 nM | 48% | 363 ± 34 nM | CSc1nc(C)c(-c2ccnc(Nc3ccc(N4CCOCC4)cc3)c2)[nH]1 [Compound 44, 4-(4-Methyl-2-(methylthio)-1H-imidazol-5-yl)-N-(4-morpholinophenyl)pyridin-2-amine] | CYP450 inhibition 2D6 (CYP450 2D6): 19.0%; CYP450 inhibition 1A9 (CYP450 1A9): 51.5%; CYP450 inhibition 3A4 (CYP450 3A4): 75.1%; fold increase in the inhibitory potency on JNK3 over analogue 38 (JNK3): 2 fold; IC50 (JNK2): 468 nM; unmodified compound still present [1]: approximately 80%; IC50 (hERG channels): > 10000 nM; hERG inhibition [% inhibition at 10 μM] (hERG channels; 10 μM): 38.8%; CYP450 inhibition 2C19 (CYP450 2C19): 35.6%; number of kinases inhibited more than 50% [2]: 10; CYP450 inhibition 2C9 (CYP450 2C9): 53.9%; IC50 (JNK1): 119 nM
2 | > 10000 nM | 21% | 2090 nM | CCn1c(SC)nc(C)c1-c1ccnc(Nc2ccc(N3CCOCC3)cc2)c1 [Compound 58, 4-(1-Ethyl-4-methyl-2-(methylthio)-1H-imidazol-5-yl)-N-(4-morpholinophenyl)pyridin-2-amine] | 
3 | > 10000 nM | 40% | 6510 nM | CSc1nc(C)c(-c2ccnc(Nc3ccc(N4CCOCC4)cc3)c2)n1C1CC1 [Compound 59, 4-(1-Cyclopropyl-4-methyl-2-(methylthio)-1H-imidazol-5-yl)-N-(4-morpholinophenyl)pyridin-2-amine] | fold less active on JNK3 compared to N-methyl analogue 57 (JNK3): ~3 fold
4 | 323 ± 14 nM |  | 276 ± 10 nM | Fc1ccc(-n2cncc2-c2ccnc(Nc3ccc(N4CCOCC4)cc3)c2)cc1 [Compound 66, 4-(1-(4-Fluorophenyl)-1H-imidazol-5-yl)-N-(4-morpholinophenyl)pyridin-2-amine] | 
5 | > 10000 nM | 32% | 714 ± 21 nM | Cn1cncc1-c1ccnc(Nc2ccc(N3CCOCC3)cc2)c1 [Compound 67, 4-(1-Methyl-1H-imidazol-5-yl)-N-(4-morpholinophenyl)pyridin-2-amine] | 
6 | > 10000 nM | 15% | > 10000 nM | Cn1ccnc1-c1ccnc(Nc2ccc(N3CCOCC3)cc2)c1 [Compound 71, 4-(1-Methyl-1H-imidazol-2-yl)-N-(4-morpholinophenyl)pyridin-2-amine] | inhibition at 10 µM (JNK3; read-out: Percent inhibition of JNK3 at indicated concentration): 42%
7 | 2 nM |  | 15 ± 3 nM | CNc1nc(-c2ccc(F)cc2)c(-c2ccnc(Nc3ccc(N4CCOCC4)cc3)c2)s1 [Compound 75, 4-(4-Fluorophenyl)-N-methyl-5-(2-((4-morpholinophenyl)amino)pyridin-4-yl)thiazol-2-amine] | fold increase in inhibitory activity for p38α MAPK (p38α MAPK; [3]): 8 fold; fold increase in inhibitory activity for JNK3 (JNK3; [3]): 2.5 fold
8 | > 10000 nM | 9% | 2500 nM | CNc1nc(-c2ccnc(Nc3ccc(N4CCOCC4)cc3)c2)c(C)s1 [Compound 78, N,5-Dimethyl-4-(2-((4-morpholinophenyl)amino)pyridin-4-yl)thiazol-2-amine] | 
